Test results: paper PMC6979384, “Characterization of the plant homeodomain (PHD) reader family for their histone tail interactions” (Epigenetics & Chromatin, 2020)

Legend:
Assay in all cases: Histone peptide microarray
Assay type in all cases: binding, human
ING1 = settings: GST-tagged ING1; sheet Array Heatmap; each array performed twice, total n = 4
Procedure, shortened: (§1)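 Readout is array binding signal, reported as the mean and standard deviation over four replicates. Each purified GST-fused PHD domain was incubated at 0.5 μM with a library of 293 modified histone peptides.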

KDM7A = settings: GST-tagged KDM7A; sheet Array Heatmap; each array performed twice, total n = 4
Procedure, shortened: as §1

PHF21A = settings: GST-tagged PHF21A; sheet Array Heatmap; each array performed twice, total n = 4
Procedure, shortened: as §1

PHF8 = settings: GST-tagged PHF8; sheet Array Heatmap; each array performed twice, total n = 4
Procedure, shortened: as §1

ING5 = settings: GST-tagged ING5; sheet Array Heatmap; each array performed twice, total n = 4
Procedure, shortened: as §1

KDM5B (1) = settings: GST-tagged KDM5B (1); sheet Array Heatmap; each array performed twice, total n = 4
Procedure, shortened: as §1

TAF3 = settings: GST-tagged TAF3; sheet Array Heatmap; each array performed twice, total n = 4
Procedure, shortened: as §1

MLL5 = settings: GST-tagged MLL5; sheet Array Heatmap; each array performed twice, total n = 4
Procedure, shortened: as §1

RAG2 = settings: GST-tagged RAG2; sheet Array Heatmap; each array performed twice, total n = 4
Procedure, shortened: as §1

ING4 = settings: GST-tagged ING4; sheet Array Heatmap; each array performed twice, total n = 4
Procedure, shortened: as §1

PHRF1 (RP) = settings: GST-tagged PHRF1 (RP); sheet Array Heatmap; each array performed twice, total n = 4
Procedure, shortened: as §1

DIDO1 = settings: GST-tagged DIDO1; sheet Array Heatmap; each array performed twice, total n = 4
Procedure, shortened: as §1

SP140L = settings: GST-tagged SP140L; sheet Array Heatmap; each array performed twice, total n = 4
Procedure, shortened: as §1

PHF23 = settings: GST-tagged PHF23; sheet Array Heatmap; each array performed twice, total n = 4
Procedure, shortened: as §1

PHF13 = settings: GST-tagged PHF13; sheet Array Heatmap; each array performed twice, total n = 4
Procedure, shortened: as §1

TRIM66 (PB) = settings: GST-tagged TRIM66 (PB = PHD + Bromodomain); sheet Array Heatmap; each array performed twice, total n = 4
Procedure, shortened: as §1

KDM5A (3) = settings: GST-tagged KDM5A (3); sheet Array Heatmap; each array performed twice, total n = 4
Procedure, shortened: as §1

AIRE (PP) = settings: GST-tagged AIRE (PP); sheet Array Heatmap; each array performed twice, total n = 4
Procedure, shortened: as §1

KDM4C (TTP) = settings: GST-tagged KDM4C (TTP = Tandem Tudor domain + PHD); sheet Array Heatmap; each array performed twice, total n = 4
Procedure, shortened: as §1

KDM5B (3) = settings: GST-tagged KDM5B (3); sheet Array Heatmap; each array performed twice, total n = 4
Procedure, shortened: as §1

CHD5 (PPCC) = settings: GST-tagged CHD5 (PPCC = Dual PHD + Dual Chromodomain); sheet Array Heatmap; each array performed twice, total n = 4
Procedure, shortened: as §1

ING2 = settings: GST-tagged ING2; sheet Array Heatmap; each array performed twice, total n = 4
Procedure, shortened: as §1

BAZ2B = settings: GST-tagged BAZ2B; sheet Array Heatmap; each array performed twice, total n = 4
Procedure, shortened: as §1

MORC3 (CW) = settings: GST-tagged MORC3 (CW = CW-type Zn-finger); sheet Array Heatmap; each array performed twice, total n = 4
Procedure, shortened: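 GST-tagged PHD finger readers were expressed, purified and applied at 0.5 μM to a microarray of 293 synthetic histone peptides carrying single or combinatorial PTMs, using an optimized protocol. Binding signals are averages with standard deviation from 4 replicates.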

BPTF (PB) = settings: GST-tagged BPTF (PB = PHD + Bromodomain); sheet Array Heatmap; each array performed twice, total n = 4
Procedure, shortened: as §1

PHF2 = settings: GST-tagged PHF2; sheet Array Heatmap; each array performed twice, total n = 4
Procedure, shortened: as §1

CHD5 (PCC) = settings: GST-tagged CHD5 (PCC = PHD + Dual Chromodomain); sheet Array Heatmap; each array performed twice, total n = 4
Procedure, shortened: as §1

CHD4 (PPCC) = settings: GST-tagged CHD4 (PPCC = Dual PHD + Dual Chromodomain); sheet Array Heatmap; each array performed twice, total n = 4
Procedure, shortened: as §1

DPF2 (PPC2W2) = settings: GST-tagged DPF2 (PPC2W2 = Dual PHD + C2W2-type Zn-finger); sheet Array Heatmap; each array performed twice, total n = 4
Procedure, shortened: as §1

ING3 = settings: GST-tagged ING3; sheet Array Heatmap; each array performed twice, total n = 4
Procedure, shortened: as §1

KDM5A (1) = settings: GST-tagged KDM5A (1); sheet Array Heatmap; each array performed twice, total n = 4
Procedure, shortened: as §1

Substance | Array Heatmap signal (histone peptide microarray) (ING1) | Array Heatmap signal (histone peptide microarray) (KDM7A) | Array Heatmap signal (histone peptide microarray) (PHF21A) | Array Heatmap signal (histone peptide microarray) (PHF8) | Array Heatmap signal (histone peptide microarray) (ING5) | Array Heatmap signal (histone peptide microarray) (KDM5B (1)) | Array Heatmap signal (histone peptide microarray) (TAF3) | Array Heatmap signal (histone peptide microarray) (MLL5) | Array Heatmap signal (histone peptide microarray) (RAG2) | Array Heatmap signal (histone peptide microarray) (ING4) | Array Heatmap signal (histone peptide microarray) (PHRF1 (RP)) | Array Heatmap signal (histone peptide microarray) (DIDO1) | Array Heatmap signal (histone peptide microarray) (SP140L) | Array Heatmap signal (histone peptide microarray) (PHF23) | Array Heatmap signal (histone peptide microarray) (PHF13) | Array Heatmap signal (histone peptide microarray) (TRIM66 (PB)) | Array Heatmap signal (histone peptide microarray) (KDM5A (3)) | Array Heatmap signal (histone peptide microarray) (AIRE (PP)) | Array Heatmap signal (histone peptide microarray) (KDM4C (TTP)) | Array Heatmap signal (histone peptide microarray) (KDM5B (3)) | also measured
H3R2me2a + T3p + K4me3: H3 1-20 | 0.5674 | 0.3305 | 0.4298 | 0.3942 | 0.3525 | 0.6049 | 0.272 | 0.5468 | 0.2527 | 0.4572 | 0.4955 | 0.7496 | 0.3541 | 0.5238 | 0.6175 | 0.6445 | 0.5129 | 0.4234 | 0.4695 | 0.5351 | Array Heatmap signal (histone peptide microarray) (CHD5 (PPCC)): 0.5403; Array Heatmap signal (histone peptide microarray) (ING2): 0.5913; Array Heatmap signal (histone peptide microarray) (BAZ2B): 0.443; Array Heatmap signal (histone peptide microarray) (MORC3 (CW)): 0.479; Array Heatmap signal (histone peptide microarray) (BPTF (PB)): 0.3598; Array Heatmap signal (histone peptide microarray) (PHF2): 0.6351; Array Heatmap signal (histone peptide microarray) (CHD5 (PCC)): 0.7634; Array Heatmap signal (histone peptide microarray) (CHD4 (PPCC)): 0.6044; Array Heatmap signal (histone peptide microarray) (DPF2 (PPC2W2)): 0.687; Array Heatmap signal (histone peptide microarray) (ING3): 0.4974; Array Heatmap signal (histone peptide microarray) (KDM5A (1)): 0.4435
H3R2me2a: H3 1-20 [Peptide H3R2me2a] | 0.5498 | 0.3073 | 0.4684 | 0.3491 | 0.3271 | 0.5237 | 0.2736 | 0.5223 | 0.2465 | 0.442 | 0.516 | 0.6992 | 0.3569 | 0.5039 | 0.5929 | 0.568 | 0.4981 | 0.3953 | 0.4374 | 0.4682 | Array Heatmap signal (histone peptide microarray) (CHD5 (PPCC)): 0.5177; Array Heatmap signal (histone peptide microarray) (ING2): 0.6004; Array Heatmap signal (histone peptide microarray) (BAZ2B): 0.4186; Array Heatmap signal (histone peptide microarray) (MORC3 (CW)): 0.4345; Array Heatmap signal (histone peptide microarray) (BPTF (PB)): 0.3326; Array Heatmap signal (histone peptide microarray) (PHF2): 0.5486; Array Heatmap signal (histone peptide microarray) (CHD5 (PCC)): 0.7924; Array Heatmap signal (histone peptide microarray) (CHD4 (PPCC)): 0.6459; Array Heatmap signal (histone peptide microarray) (DPF2 (PPC2W2)): 0.6507; Array Heatmap signal (histone peptide microarray) (ING3): 0.4743; Array Heatmap signal (histone peptide microarray) (KDM5A (1)): 0.4227
